From PubChem BioAssay (NCI)
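96-well plates; 48 h exposure; 5 concentrations. Endpoints by linear interpolation between flanking doses. Not reached: highest tested concentration assigned. The concentration for 50% growth inhibition is given as GI50. Definition used: TGI = concentration required for complete inhibition of growth.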

Legend:
Assay in all cases: inhibition of tumour cell growth, NCI panel, 48 h
MDA-MB-231 breast = tested on: MDA-MB-231 breast
SR leukemia = tested on: SR leukemia
HS 578T breast = tested on: HS 578T breast
CAKI-1 renal = tested on: CAKI-1 renal
A549 NSCLC = tested on: A549 NSCLC
NCI-H23 lung = tested on: NCI-H23 lung
HCT-15 colon = tested on: HCT-15 colon
A498 renal = tested on: A498 renal
SF-268 CNS = tested on: SF-268 CNS
OVCAR-8 ovarian = tested on: OVCAR-8 ovarian
NCI-H460 lung = tested on: NCI-H460 lung
MALME-3M melanoma = tested on: MALME-3M melanoma
BT-549 breast = tested on: BT-549 breast
SK-OV-3 ovarian = tested on: SK-OV-3 ovarian
HCC-2998 colon = tested on: HCC-2998 colon
MDA-MB-435 = tested on: MDA-MB-435
NCI/ADR-RES ovarian = tested on: NCI/ADR-RES ovarian
SK-MEL-2 melanoma = tested on: SK-MEL-2 melanoma
SNB-75 CNS = tested on: SNB-75 CNS
SN12C renal = tested on: SN12C renal
OVCAR-4 ovarian = tested on: OVCAR-4 ovarian
786-0 renal = tested on: 786-0 renal
SF-539 CNS = tested on: SF-539 CNS
PC-3 prostate = tested on: PC-3 prostate
HT29 colon = tested on: HT29 colon
U251 CNS = tested on: U251 CNS
K-562 leukemia = tested on: K-562 leukemia
NCI-H226 lung = tested on: NCI-H226 lung
DU-145 prostate = tested on: DU-145 prostate

**Q.** What does the source list for `O=C(Nc1cccc(C(F)(F)F)c1)Oc1ccc(Cl)c2cccnc12`?
**A.** GI50 (MDA-MB-231 breast): 2.11 µM; TGI (MDA-MB-231 breast): 6.15 µM; GI50 (SR leukemia): 0.447 µM; GI50 (HS 578T breast): 3.56 µM; TGI (HS 578T breast): > 24 µM; GI50 (CAKI-1 renal): 2.03 µM; TGI (CAKI-1 renal): 4.79 µM; GI50 (A549 NSCLC): 2.43 µM; TGI (A549 NSCLC): 9.03 µM; GI50 (NCI-H23 lung): 1.48 µM; TGI (NCI-H23 lung): 11.7 µM; GI50 (HCT-15 colon): 0.584 µM; TGI (HCT-15 colon): 9.19 µM; GI50 (A498 renal): 3.82 µM; TGI (A498 renal): 12.4 µM; GI50 (SF-268 CNS): 1.36 µM; TGI (SF-268 CNS): 16.6 µM; GI50 (OVCAR-8 ovarian): 0.906 µM; TGI (OVCAR-8 ovarian): 6.16 µM; GI50 (NCI-H460 lung): 1.01 µM; TGI (NCI-H460 lung): 5.08 µM; GI50 (MALME-3M melanoma): 1.18 µM; TGI (MALME-3M melanoma): 3.96 µM; GI50 (BT-549 breast): 0.524 µM; TGI (BT-549 breast): 3.69 µM; GI50 (SK-OV-3 ovarian): 6.64 µM; TGI (SK-OV-3 ovarian): 29.3 µM; GI50 (HCC-2998 colon): 3.51 µM; TGI (HCC-2998 colon): 12.8 µM; GI50 (MDA-MB-435): 1.89 µM; TGI (MDA-MB-435): 9.5 µM; GI50 (NCI/ADR-RES ovarian): 1.23 µM; TGI (NCI/ADR-RES ovarian): 16.8 µM; GI50 (SK-MEL-2 melanoma): 2.07 µM; TGI (SK-MEL-2 melanoma): 5.55 µM; GI50 (SNB-75 CNS): 2.59 µM; TGI (SNB-75 CNS): 17.8 µM; GI50 (SN12C renal): 1.85 µM; TGI (SN12C renal): 7.89 µM; GI50 (OVCAR-4 ovarian): 0.831 µM; TGI (OVCAR-4 ovarian): 14.8 µM; GI50 (786-0 renal): 5.09 µM; TGI (786-0 renal): 15.4 µM; GI50 (SF-539 CNS): 1.85 µM; TGI (SF-539 CNS): 7.92 µM; GI50 (PC-3 prostate): 0.607 µM; TGI (PC-3 prostate): 14.2 µM; GI50 (HT29 colon): 3.9 µM; TGI (HT29 colon): 14.1 µM; GI50 (U251 CNS): 0.861 µM; TGI (U251 CNS): 8.57 µM; GI50 (K-562 leukemia): 1.02 µM; TGI (K-562 leukemia): > 100 µM; GI50 (NCI-H226 lung): 2.25 µM; TGI (NCI-H226 lung): 5.75 µM; GI50 (DU-145 prostate): 2.38 µM; TGI (DU-145 prostate): 15.8 µM
